Source: the NIST ThermoML archive (doi:10.1021/je101014q)

Assay: xn = mol fraction of the nth substance listed
Settings: 101 kPa, Liquid, Cone and plate viscometry

CC(=O)[O-].CCCC[N+](CC)(CC)CC [N,N,N-triethylbutanaminium acetate] + O
viscosity [mPa·s]
Settings	x1 = 0.17	x1 = 0.33	x1 = 0.5	x1 = 1
298.2 K	13	66	79	439
313.2 K	10.9	39.4	55.5	306.7
333.2 K	5.15	12.6	15.6	47.3
